Data published in paper PMC3199943, “Screening the MayBridge Rule of 3 Fragment Library for Compounds That Interact with the Trypanosoma brucei myo-Inositol-3-Phosphate Synthase and/or Show Trypanocidal Activity” (Molecular Biology International, 2011).
Like-named read-outs stand apart in the source and are kept apart here.

What was measured:
A549 cells = test: Cytotoxicity against A549 cells, Alamar Blue; type: cell-based; details: Supplementary Table 1, compound 0.5 mM, percentage of controls (n=1); for viability at 500 µM: Homo sapiens, A549, 65 h
Method in brief: (§1)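 Viability by Alamar Blue (5 h) after ~65 h drug treatment; seeding density 2 × 10^4 cells/well in DMEM supplemented with 10% FCS and 2 mM L-Glutamine.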

HeLa cells = test: cells; details: for viability at 500 µM: 65 h; for HeLa Cells Alamar Blue: Supplementary Table 1
Method in brief: as §1

TbINO1 = molecular target: T1, TbINO1 (Trypanosoma brucei brucei, UniProt Q5QQ46); test: biochemical; type: binding; details: for Tb Ino1 Tm Shift [˚C]: Supplementary Table 1, compound 1mM, mean ± SD from Boltzman curve fitting
T1 sequence (Q5QQ46 1-528): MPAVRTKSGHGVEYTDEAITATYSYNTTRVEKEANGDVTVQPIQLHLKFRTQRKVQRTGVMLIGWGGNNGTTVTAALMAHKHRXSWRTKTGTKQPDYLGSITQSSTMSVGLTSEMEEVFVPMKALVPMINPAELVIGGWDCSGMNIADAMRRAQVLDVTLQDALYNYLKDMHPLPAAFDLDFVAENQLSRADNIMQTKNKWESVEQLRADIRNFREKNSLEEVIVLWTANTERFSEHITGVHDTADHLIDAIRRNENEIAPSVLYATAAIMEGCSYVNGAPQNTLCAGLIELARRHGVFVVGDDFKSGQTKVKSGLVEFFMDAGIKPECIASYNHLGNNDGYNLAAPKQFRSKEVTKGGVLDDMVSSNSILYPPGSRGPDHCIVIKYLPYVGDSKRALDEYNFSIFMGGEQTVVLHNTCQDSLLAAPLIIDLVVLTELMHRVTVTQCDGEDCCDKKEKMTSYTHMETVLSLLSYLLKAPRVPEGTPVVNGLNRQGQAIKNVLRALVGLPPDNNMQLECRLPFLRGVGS

[1] = Homo sapiens, HeLa, read-out: HeLa Cells Alamar Blue
[2] = Homo sapiens, HeLa, read-out: HeLa Cells Alamar Blue (% survival)
[3] = read-out: Tb Ino1 Tm Shift [˚C]
[4] = compound 0.5 mM, percentage of controls, mean ± SD (n=3) or SE (n=2)
[5] = Homo sapiens, HeLa, read-out: HeLa Cells Alamar Blue, Supplementary Table 1, compound 0.5 mM, percentage of controls, mean ± SD (n=3) or SE (n=2)

Row | SMILES | viability at 500 µM (A549 cells) [%] | viability at 500 µM (HeLa cells; [1]) [%] | ΔTm at 1000 µM (TbINO1; [3]) [°C] | other results
1 | CC(=O)c1c(O)cccc1O [compound 204, 1-(2,6-dihydroxyphenyl)ethan-1-one] | 34.4 | 36.3 ± 12.5 | – | viability at 500 µM (HeLa cells; [2]): 36.3 ± 12.5%; ΔTm at 1000 µM (TbINO1; read-out: TbIno1 Tm shift [°C]): 2.35 ± 0.06 °C
2 | N#Cc1ccccc1OC(F)(F)F [compound 509, 2‐(trifluoromethoxy)benzonitrile] | 110 | 106 ± 16.9 | 0.01 ± 0.08 | –
3 | Cc1nn(C)c(C)c1N [compound 72, 1,3,5‐trimethyl‐1H‐pyrazol‐4‐amine] | 70.9 | 78.5 ± 0.8 | 1.19 ± 0.08 | –
4 | Cc1cc(CO)nn1C [compound 76, (1,5‐dimethyl‐1H‐pyrazol‐3‐yl)methanol] | 100 | 99.6 ± 4.5 | 0.56 ± 0.08 | –
5 | Cc1ccc(C)c(C(O)C(=O)O)c1 (stereo not drawn) [compound 454, 2‐(2,5‐dimethylphenyl)‐2‐hydroxyacetic acid] | – | – | – | A549 Cells Alamar Blue (A549 cells): 60.8 percentage of controls; HeLa Cells Alamar Blue (HeLa cells; [4]): 96.8 ± 12.7 percentage of controls; Tb Ino1 Tm Shift [˚C] (TbINO1): 0.02 ± 0.06 °C
6 | O=C(O)c1ccc(-c2nccs2)cc1 [compound 662, 4‐(1,3‐thiazol‐2‐yl)benzoic acid] | 100 | 102 ± 7.2 | 0.36 ± 0.06 | –
7 | Cc1cccc(CN)c1C [compound 113, 2,3‐dimethylbenzylamine] | 83.6 | 89.3 ± 15.9 | 0.12 ± 0.07 | –
8 | OCc1cnccn1 [compound 23, 2‐pyrazinylmethanol] | 75.9 | 77.5 ± 12.3 | 0.27 ± 0.07 | –
9 | OCc1csc(-c2cccnc2)n1 [compound 566, (2‐pyridin‐3‐yl‐1,3‐thiazol‐4‐yl)methanol] | 104 | 88.4 ± 18.2 | 0.29 ± 0.07 | –
10 | Cc1occc1C(=O)O [compound 75, 2-methyl-3-furoic acid] | 110 | 63.3 ± 5.9 | – | viability at 500 µM (HeLa cells; [2]): 63.3 ± 5.9%; ΔTm at 1000 µM (TbINO1; read-out: TbIno1 Tm shift [°C]): 3.89 ± 0.07 °C
11 | Cc1nc(C(=O)O)cs1 [compound 146, 2‐methyl‐1,3‐thiazole‐4‐carboxylic acid] | 109 | 87 ± 6.4 | 0.1 ± 0.08 | –
12 | NC(=S)c1ccsc1 [compound 148, thiophene‐3‐carbothioamide] | 99.6 | 92.3 ± 7 | 0.78 ± 0.08 | –
13 | Cc1cc(C(=O)O)c2cc(F)ccc2n1 [compound 660, 6‐fluoro‐2‐methyl‐4‐quinolinecarboxylic acid] | – | – | – | A549 Cells Alamar Blue (A549 cells): 146.9 percentage of controls; HeLa Cells Alamar Blue (HeLa cells; [4]): 103 ± 3.9 percentage of controls; Tb Ino1 Tm Shift [˚C] (TbINO1): 0.5 ± 0.06 °C
14 | O=C(O)c1sccc1-n1cccc1 [compound 577, 3-(1H-pyrrol-1-yl)thiophene-2-carboxylic acid] | 90.4 | 103 ± 2.8 | – | viability at 500 µM (HeLa cells; [2]): 103 ± 2.8%; CC50 (HeLa cells; Homo sapiens, HeLa, read-out: HeLa ED50): > 20 mM; ΔTm at 1000 µM (TbINO1; read-out: TbIno1 Tm shift [°C]): 2.78 ± 0.08 °C
15 | OCc1cc(F)cc2c1OCOC2 [compound 476, (6‐fluoro‐4H‐1,3‐benzodioxin‐8‐yl)methanol] | – | – | – | A549 Cells Alamar Blue (A549 cells): 78.9 percentage of controls; HeLa Cells Alamar Blue (HeLa cells; [4]): 102.6 ± 9.4 percentage of controls; Tb Ino1 Tm Shift [˚C] (TbINO1): 0.01 ± 0.07 °C
16 | Cc1nc(CO)c(C)o1 [compound 78, (2,5‐dimethyl‐1,3‐oxazol‐4‐yl)methanol] | 110 | 92.7 ± 11.5 | 0.13 ± 0.08 | –
17 | Nc1ccc2occc2c1 [compound 100, 1‐benzofuran‐5‐amine] | 110 | 80.2 ± 12.5 | 0.78 ± 0.05 | –

Row | SMILES | viability at 500 µM (A549 cells) [%] | viability at 500 µM (HeLa cells; [1]) [%] | ΔTm at 1000 µM (TbINO1; [3]) [°C] | other results
18 | N#Cc1c(N)cccc1F [compound 115, 2‐amino‐6‐fluorobenzonitrile] | 77.4 | 71.3 ± 0.6 | 0.17 ± 0.07 | –
19 | Cc1ccc(C(=O)O)c(N)c1 [compound 196, 2‐amino‐4‐methylbenzoic acid] | 36.7 | 97.4 ± 4.1 | 1.1 ± 0.06 | –
20 | O=C(O)c1ccc(-c2ccccn2)s1 [compound 661, 5‐(2‐pyridyl)thiophene‐2‐carboxylic acid] | 94.1 | 95.3 ± 3.5 | 0.91 ± 0.07 | –
21 | N#CCc1ccccn1 [compound 46, 2‐(2‐pyridyl)acetonitrile] | 82.6 | 63.2 ± 17.9 | 1.11 ± 0.24 | –
22 | OCc1cccc2c1OCO2 [compound 203, 1,3‐benzodioxol‐4‐ylmethanol] | 60.8 | 94.6 ± 14.1 | 0.06 ± 0.08 | –
23 | OCc1nccs1 [compound 38, 1,3‐thiazol‐2‐ylmethanol] | 95 | 99.4 ± 4.1 | 0.18 ± 0.09 | –
24 | Nc1cc(F)cc(F)c1 [compound 89, 3,5‐difluoroaniline] | 132 | 104 ± 10.5 | 0.3 ± 0.07 | –
25 | O=C(O)c1ccccc1F [compound 129, 2‐fluorobenzoic acid] | 126 | – | 0.13 ± 0.07 | viability at 500 µM (HeLa cells; [5]): 78.6 ± 14.2%
26 | O=C(O)Cc1c[nH]c2ccccc12 [compound 391, 2-(1H-indol-3-yl)acetic acid] | 134 | 42.6 ± 6.4 | – | viability at 500 µM (HeLa cells; [2]): 42.6 ± 6.4%; ΔTm at 1000 µM (TbINO1; read-out: TbIno1 Tm shift [°C]): 1.67 ± 0.08 °C
27 | NCc1ccccc1Cl [compound 136, 2‐chlorobenzylamine] | 90.4 | 53.3 ± 12.2 | 0.02 ± 0.07 | –
28 | NC(=S)Nc1ccncc1 [compound 215, N‐(4‐pyridyl)thiourea] | 59.6 | 98.3 ± 16.5 | 0.03 ± 0.08 | –
29 | Oc1ccc2c(c1)OCO2 [compound 124, 1,3-benzodioxol-5-ol] | 53.6 | 39.7 ± 12.5 | – | viability at 500 µM (HeLa cells; [2]): 39.7 ± 12.5%; ΔTm at 1000 µM (TbINO1; compound 1 mM, mean ± SD (n = 3), read-out: TbIno1 Tm shift [°C]): 2.1 ± 0.04 °C
30 | Oc1noc2ccccc12 [compound 112, benzo[d]isoxazol‐3‐ol] | 76.7 | – | 0.23 ± 0.06 | viability at 500 µM (HeLa cells; [5]): 83 ± 11.2%
31 | O=C1COc2cc(O)ccc21 [compound 182, 6‐hydroxy‐2,3‐dihydrobenzo[b]furan‐3‐one] | – | – | – | A549 Cells Alamar Blue (A549 cells): 65.6 percentage of controls; HeLa Cells Alamar Blue (HeLa cells; [4]): 119.6 ± 2.4 percentage of controls; Tb Ino1 Tm Shift [˚C] (TbINO1): 0.92 ± 0.09 °C
32 | ON=C1CCCc2ccccc21 [compound 279, 1,2,3,4‐tetrahydronaphthalen‐1‐one oxime] | – | – | – | A549 Cells Alamar Blue (A549 cells): 16.9 percentage of controls; HeLa Cells Alamar Blue (HeLa cells; [4]): 19.9 ± 19.7 percentage of controls; Tb Ino1 Tm Shift [˚C] (TbINO1): 0.76 ± 0.08 °C
33 | CCOC(=O)c1[nH]c(C)cc1C [compound 330, ethyl 3,5‐dimethyl‐1H‐pyrrole‐2‐carboxylate] | 156 | 122 ± 12.3 | 0.61 ± 0.06 | –
34 | CC(=O)NCc1cccnc1 [compound 188, N1‐(3‐pyridylmethyl)acetamide] | 69.5 | 104 ± 7.3 | 0.05 ± 0.07 | –
